These results are taken from article PMC4685510, “A Cell Biologist’s Field Guide to Aurora Kinase Inhibitors” (Frontiers in Oncology, 2015).

Assay in all cases: biochemical
Type in all cases: biochemical

Assay [1] deals with T1, 363 human kinases (including Aurora A/B/C) (Homo sapiens, UniProt O43781).
T1 sequence (O43781 1-588): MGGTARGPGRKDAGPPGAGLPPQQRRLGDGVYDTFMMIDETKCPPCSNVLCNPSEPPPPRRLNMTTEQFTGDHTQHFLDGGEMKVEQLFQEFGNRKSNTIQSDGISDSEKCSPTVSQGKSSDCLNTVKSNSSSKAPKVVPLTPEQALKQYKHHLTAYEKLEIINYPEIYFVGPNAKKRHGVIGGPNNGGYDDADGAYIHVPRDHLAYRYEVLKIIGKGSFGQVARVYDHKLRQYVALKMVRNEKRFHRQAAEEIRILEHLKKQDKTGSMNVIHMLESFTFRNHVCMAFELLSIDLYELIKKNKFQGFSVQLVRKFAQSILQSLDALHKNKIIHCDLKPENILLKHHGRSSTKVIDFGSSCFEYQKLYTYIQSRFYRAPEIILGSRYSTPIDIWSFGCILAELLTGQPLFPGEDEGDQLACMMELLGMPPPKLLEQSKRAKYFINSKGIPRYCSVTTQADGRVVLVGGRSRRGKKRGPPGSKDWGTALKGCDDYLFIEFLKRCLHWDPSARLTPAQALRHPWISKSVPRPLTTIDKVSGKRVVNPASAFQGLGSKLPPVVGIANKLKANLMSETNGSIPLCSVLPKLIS
The following applies: DYRK3, [ATP] 5 µM; for remaining activity at 0.1 µM: 100 nM; for remaining activity at 0.1 µM / remaining activity at 0.5 µM: read-out: % Enzyme Activity (relative to DMSO controls).
From the text: (§1) However, the Aurora A/B selectivity ratios derived from our in vitro and in vivo data can be compared to prioritize inhibitors.

The target of assay [2] is 363 human kinases (including Aurora A/B/C) (Homo sapiens, UniProt Q86UX6). The following applies: STK32C/YANK3; for remaining activity at 0.1 µM: 100 nM; for remaining activity at 0.1 µM / remaining activity at 0.5 µM: read-out: % Enzyme Activity (relative to DMSO controls).
363 human kinases (including Aurora A/B/C) (Homo sapiens, UniProt Q86UX6), sequence (Q86UX6 whole entry): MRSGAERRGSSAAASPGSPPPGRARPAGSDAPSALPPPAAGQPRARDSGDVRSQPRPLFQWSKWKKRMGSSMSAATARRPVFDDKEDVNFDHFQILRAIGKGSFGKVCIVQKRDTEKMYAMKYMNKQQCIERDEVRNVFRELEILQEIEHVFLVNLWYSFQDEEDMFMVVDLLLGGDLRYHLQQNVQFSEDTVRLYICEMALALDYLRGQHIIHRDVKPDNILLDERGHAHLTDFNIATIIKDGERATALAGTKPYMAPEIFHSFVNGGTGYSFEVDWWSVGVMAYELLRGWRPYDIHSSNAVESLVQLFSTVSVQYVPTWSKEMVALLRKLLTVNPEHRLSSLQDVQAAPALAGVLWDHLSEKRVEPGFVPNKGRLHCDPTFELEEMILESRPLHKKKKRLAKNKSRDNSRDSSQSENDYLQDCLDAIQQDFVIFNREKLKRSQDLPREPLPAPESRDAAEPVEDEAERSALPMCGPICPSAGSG
From the text: as §1
Assay [3] addresses 363 human kinases (including Aurora A/B/C) (Homo sapiens, UniProt Q86V86). Particulars: PIM3; for remaining activity at 0.1 µM: 100 nM; for remaining activity at 0.1 µM / remaining activity at 0.5 µM: read-out: % Enzyme Activity (relative to DMSO controls).
From the text: as §1
Assay [4] has as its target 363 human kinases (including Aurora A/B/C) (Homo sapiens, UniProt Q96SB4). The following applies: SRPK1; for remaining activity at 0.1 µM: 100 nM; for remaining activity at 0.1 µM / remaining activity at 0.5 µM: read-out: % Enzyme Activity (relative to DMSO controls).
From the text: as §1
The target of assay [5] is 363 human kinases (including Aurora A/B/C) (Homo sapiens, UniProt Q9H0K1). Particulars: SIK2; for remaining activity at 0.1 µM: 100 nM; for remaining activity at 0.1 µM / remaining activity at 0.5 µM: read-out: % Enzyme Activity (relative to DMSO controls).
363 human kinases (including Aurora A/B/C) (Homo sapiens, UniProt Q9H0K1), sequence (Q9H0K1 whole entry): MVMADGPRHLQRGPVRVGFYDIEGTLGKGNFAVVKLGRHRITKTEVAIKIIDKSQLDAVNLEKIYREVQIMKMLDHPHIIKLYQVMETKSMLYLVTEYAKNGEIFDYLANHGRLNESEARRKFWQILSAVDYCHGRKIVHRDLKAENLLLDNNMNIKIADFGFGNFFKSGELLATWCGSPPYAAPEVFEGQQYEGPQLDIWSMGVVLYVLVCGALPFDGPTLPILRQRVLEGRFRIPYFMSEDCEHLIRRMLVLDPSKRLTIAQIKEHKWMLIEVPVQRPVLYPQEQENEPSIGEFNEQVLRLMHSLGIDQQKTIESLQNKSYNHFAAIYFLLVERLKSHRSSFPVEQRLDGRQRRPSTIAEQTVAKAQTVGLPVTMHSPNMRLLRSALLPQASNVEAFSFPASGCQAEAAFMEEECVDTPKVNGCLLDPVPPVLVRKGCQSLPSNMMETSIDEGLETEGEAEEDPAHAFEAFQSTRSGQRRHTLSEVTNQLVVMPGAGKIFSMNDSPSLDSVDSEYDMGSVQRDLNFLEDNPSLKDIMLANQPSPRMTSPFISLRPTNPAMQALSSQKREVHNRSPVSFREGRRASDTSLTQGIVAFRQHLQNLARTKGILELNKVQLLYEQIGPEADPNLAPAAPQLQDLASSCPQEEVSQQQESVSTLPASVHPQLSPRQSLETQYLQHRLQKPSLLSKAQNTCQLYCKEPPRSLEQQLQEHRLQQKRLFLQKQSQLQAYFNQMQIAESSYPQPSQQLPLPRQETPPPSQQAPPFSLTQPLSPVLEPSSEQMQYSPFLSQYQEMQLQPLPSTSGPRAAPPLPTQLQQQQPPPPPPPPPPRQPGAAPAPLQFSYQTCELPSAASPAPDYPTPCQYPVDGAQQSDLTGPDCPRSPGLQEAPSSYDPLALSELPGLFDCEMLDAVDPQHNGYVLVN
From the text: as §1
In assay [6] the target is T2, 363 human kinases (including Aurora A/B/C) (Homo sapiens, UniProt Q15139).
T2 sequence (Q15139 1-912): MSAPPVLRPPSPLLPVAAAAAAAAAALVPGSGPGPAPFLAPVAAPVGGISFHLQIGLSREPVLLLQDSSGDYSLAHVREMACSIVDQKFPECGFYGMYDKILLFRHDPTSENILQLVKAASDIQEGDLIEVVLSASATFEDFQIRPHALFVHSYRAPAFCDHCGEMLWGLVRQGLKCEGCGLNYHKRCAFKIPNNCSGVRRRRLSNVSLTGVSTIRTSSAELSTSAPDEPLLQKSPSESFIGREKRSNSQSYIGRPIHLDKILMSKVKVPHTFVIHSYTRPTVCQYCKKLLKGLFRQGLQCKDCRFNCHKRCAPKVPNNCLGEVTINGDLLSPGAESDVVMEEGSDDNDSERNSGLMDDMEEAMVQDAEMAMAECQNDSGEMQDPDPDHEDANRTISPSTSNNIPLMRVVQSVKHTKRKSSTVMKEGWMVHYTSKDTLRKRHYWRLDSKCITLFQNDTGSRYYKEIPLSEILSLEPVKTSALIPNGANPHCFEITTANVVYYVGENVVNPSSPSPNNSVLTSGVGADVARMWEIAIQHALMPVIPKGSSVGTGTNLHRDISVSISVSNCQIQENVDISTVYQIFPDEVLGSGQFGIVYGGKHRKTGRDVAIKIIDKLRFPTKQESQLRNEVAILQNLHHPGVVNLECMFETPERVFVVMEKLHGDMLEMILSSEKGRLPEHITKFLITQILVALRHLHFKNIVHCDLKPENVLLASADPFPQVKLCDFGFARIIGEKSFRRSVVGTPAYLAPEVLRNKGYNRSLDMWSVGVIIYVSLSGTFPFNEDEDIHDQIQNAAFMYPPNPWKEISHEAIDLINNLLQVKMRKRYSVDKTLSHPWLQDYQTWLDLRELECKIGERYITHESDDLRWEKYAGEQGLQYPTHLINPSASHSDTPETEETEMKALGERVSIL
Particulars: PKCmu/PRKD1; for remaining activity at 0.1 µM: 100 nM; for remaining activity at 0.1 µM / remaining activity at 0.5 µM: read-out: % Enzyme Activity (relative to DMSO controls).
From the text: as §1

Assay [7] has as its target 363 human kinases (including Aurora A/B/C) (Homo sapiens, UniProt O60674). The following applies: JAK2; for remaining activity at 0.1 µM: 100 nM; for remaining activity at 0.1 µM / remaining activity at 0.5 µM: read-out: % Enzyme Activity (relative to DMSO controls).
From the text: as §1
Assay [8] deals with 363 human kinases (including Aurora A/B/C) (Homo sapiens, UniProt Q8TDX7). The following applies: NEK7; for remaining activity at 0.1 µM: 100 nM; for remaining activity at 0.1 µM / remaining activity at 0.5 µM: read-out: % Enzyme Activity (relative to DMSO controls).
363 human kinases (including Aurora A/B/C) (Homo sapiens, UniProt Q8TDX7), sequence (Q8TDX7 whole entry): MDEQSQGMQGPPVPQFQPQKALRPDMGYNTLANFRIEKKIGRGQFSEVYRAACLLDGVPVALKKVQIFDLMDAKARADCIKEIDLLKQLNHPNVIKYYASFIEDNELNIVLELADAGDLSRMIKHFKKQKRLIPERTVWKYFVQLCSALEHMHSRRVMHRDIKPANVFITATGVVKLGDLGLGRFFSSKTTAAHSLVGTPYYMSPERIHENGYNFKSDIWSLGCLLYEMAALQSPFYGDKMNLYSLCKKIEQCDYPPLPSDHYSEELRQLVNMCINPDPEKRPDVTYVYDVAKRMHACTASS
From the text: as §1
The target in assay [9] is T3, 363 human kinases (including Aurora A/B/C) (Homo sapiens, UniProt Q13976).
T3 sequence (Q13976 1-671): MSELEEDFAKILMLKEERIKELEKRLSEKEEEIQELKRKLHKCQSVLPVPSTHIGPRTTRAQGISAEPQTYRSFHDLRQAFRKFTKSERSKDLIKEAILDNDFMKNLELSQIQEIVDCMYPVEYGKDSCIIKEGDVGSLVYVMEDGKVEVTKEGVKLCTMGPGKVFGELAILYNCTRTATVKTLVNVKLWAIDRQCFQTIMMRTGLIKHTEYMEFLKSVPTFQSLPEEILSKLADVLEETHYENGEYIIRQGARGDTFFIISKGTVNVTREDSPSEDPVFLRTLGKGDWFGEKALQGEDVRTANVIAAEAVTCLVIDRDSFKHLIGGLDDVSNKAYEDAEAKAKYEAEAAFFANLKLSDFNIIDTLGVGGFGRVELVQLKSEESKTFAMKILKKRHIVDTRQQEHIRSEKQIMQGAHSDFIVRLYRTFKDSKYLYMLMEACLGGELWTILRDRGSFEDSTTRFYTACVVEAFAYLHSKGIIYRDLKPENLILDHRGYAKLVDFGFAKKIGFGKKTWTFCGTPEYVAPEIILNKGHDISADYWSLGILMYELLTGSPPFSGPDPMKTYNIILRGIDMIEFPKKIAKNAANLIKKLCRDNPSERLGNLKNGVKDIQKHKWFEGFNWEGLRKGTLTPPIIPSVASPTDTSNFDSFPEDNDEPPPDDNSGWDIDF
The following applies: PKG1a; for remaining activity at 0.1 µM: 100 nM.
From the text: as §1

Assay [10] addresses 363 human kinases (including Aurora A/B/C) (Homo sapiens, UniProt O00238). The following applies: ALK6/BMPR1B, [ATP] 10 µM; for remaining activity at 0.1 µM: 100 nM; for remaining activity at 0.1 µM / remaining activity at 0.5 µM: read-out: % Enzyme Activity (relative to DMSO controls).
From the text: as §1
The mark [11] stands for this setting: read-out: % Enzyme Activity (relative to DMSO controls).

363 human kinases (including Aurora A/B/C) (Homo sapiens, UniProt O00238), sequence (O00238 14-502): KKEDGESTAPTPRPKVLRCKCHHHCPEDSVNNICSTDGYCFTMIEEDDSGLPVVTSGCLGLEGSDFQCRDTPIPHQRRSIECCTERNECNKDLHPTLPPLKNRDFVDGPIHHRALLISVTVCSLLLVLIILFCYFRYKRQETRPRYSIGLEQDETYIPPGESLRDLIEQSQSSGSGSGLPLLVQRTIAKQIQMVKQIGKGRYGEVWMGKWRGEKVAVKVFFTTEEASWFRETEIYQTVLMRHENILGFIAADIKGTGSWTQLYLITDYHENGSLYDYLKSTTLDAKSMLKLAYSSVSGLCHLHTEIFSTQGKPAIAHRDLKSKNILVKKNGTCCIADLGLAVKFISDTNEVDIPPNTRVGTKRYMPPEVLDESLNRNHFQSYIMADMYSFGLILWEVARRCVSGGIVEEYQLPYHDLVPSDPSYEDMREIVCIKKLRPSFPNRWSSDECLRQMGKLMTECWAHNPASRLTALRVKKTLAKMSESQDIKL
363 human kinases (including Aurora A/B/C) (Homo sapiens, UniProt O60674), sequence (O60674 whole entry): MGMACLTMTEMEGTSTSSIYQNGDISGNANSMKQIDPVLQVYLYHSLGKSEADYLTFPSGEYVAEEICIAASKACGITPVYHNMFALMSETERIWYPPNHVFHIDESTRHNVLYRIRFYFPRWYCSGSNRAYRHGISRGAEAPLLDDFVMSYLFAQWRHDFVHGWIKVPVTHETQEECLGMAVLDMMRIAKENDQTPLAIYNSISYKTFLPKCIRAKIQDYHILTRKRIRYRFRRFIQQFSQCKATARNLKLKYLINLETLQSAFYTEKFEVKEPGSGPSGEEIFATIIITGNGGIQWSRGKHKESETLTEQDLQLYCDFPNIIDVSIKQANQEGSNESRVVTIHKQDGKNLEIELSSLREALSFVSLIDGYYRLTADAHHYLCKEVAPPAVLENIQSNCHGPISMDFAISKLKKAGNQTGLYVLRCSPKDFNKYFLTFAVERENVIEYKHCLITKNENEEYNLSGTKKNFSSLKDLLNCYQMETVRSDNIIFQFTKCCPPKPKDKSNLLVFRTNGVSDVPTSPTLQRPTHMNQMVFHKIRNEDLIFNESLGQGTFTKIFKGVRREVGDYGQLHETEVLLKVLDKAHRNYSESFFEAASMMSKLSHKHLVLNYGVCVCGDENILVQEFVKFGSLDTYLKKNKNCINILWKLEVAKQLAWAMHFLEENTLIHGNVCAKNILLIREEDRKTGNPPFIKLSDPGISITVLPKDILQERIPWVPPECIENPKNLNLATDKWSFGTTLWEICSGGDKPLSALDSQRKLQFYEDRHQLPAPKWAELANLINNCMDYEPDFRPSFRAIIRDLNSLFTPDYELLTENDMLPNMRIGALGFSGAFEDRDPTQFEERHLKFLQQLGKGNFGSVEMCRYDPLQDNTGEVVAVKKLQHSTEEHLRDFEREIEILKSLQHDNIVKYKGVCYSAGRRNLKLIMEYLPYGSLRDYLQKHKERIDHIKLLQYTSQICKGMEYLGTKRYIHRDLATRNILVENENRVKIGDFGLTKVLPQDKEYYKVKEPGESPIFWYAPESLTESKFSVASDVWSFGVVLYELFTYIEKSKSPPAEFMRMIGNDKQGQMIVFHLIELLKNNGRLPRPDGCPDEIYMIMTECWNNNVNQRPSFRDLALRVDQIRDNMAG
363 human kinases (including Aurora A/B/C) (Homo sapiens, UniProt Q96SB4), sequence (Q96SB4 whole entry): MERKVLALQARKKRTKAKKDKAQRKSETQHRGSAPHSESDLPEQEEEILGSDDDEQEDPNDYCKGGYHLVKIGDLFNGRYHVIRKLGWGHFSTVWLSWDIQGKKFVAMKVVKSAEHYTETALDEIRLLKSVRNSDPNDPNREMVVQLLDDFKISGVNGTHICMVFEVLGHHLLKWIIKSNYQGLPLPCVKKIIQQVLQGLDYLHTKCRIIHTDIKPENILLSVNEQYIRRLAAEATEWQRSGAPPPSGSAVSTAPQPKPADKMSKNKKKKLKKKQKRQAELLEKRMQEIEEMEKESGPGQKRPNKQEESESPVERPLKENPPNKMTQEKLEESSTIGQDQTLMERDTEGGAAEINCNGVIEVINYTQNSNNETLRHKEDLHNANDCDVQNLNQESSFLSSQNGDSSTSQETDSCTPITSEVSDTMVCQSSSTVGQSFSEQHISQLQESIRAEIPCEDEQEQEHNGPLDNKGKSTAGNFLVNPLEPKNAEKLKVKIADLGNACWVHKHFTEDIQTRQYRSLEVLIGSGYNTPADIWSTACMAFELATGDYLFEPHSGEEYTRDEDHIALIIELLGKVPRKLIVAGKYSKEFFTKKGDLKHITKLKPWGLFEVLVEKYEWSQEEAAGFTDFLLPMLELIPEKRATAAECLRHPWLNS

For `CCn1cc(-c2ccnc3[nH]c(-c4cccc(CN(C)C)c4)cc23)c(-c2ccc(NC(=O)N(C)C)cc2)n1` [GSK1070916], the remaining activity at 0.1 µM in assay [1] was 96%; in assay [2] it was 79.9%; in [3], 106%; in assay [4] it was 103%; in assay [5] it was 40%; in assay [6] it was 85.4%. Besides, the remaining activity at 0.1 µM stood at 104% in [7], 102% in assay [8], 126% in assay [9] (setting [11]) and 89.2% in assay [10].

With `O=C(O)[C@]1(Cc2cccc(Nc3nccs3)n2)CC[C@@H](Oc2cccc(Cl)c2F)CC1` [MK-5108], the remaining activity at 0.1 µM worked out at 87.2% in assay [1]; 124% in [2]; 93.8% in assay [3]; 101% in assay [4]; 96.5% in assay [5]; 108% in assay [6]. Besides, the remaining activity at 0.1 µM amounted to 31.1% in assay [7], 98.5% in [8], 122% in assay [9] (setting [11]) and 101% in assay [10]. Besides, the remaining activity at 0.5 µM in assay [1] (500 nM) came to 92.2%; in assay [2] (500 nM) it was 96.6%; in [3] (500 nM), 62.2%; in assay [4] (500 nM), 95.5%; in assay [5] (500 nM), 93.3%; in [6] (500 nM), 99%. Further, the remaining activity at 0.5 µM in assay [7] (500 nM) is 7.8%; in assay [8] (500 nM) it was 109%; in [10] (500 nM) it was 46.2%.

With `O=C(c1cccc(Cl)c1F)N1CCN(Cc2cccc(Nc3nccs3)n2)CC1` [MK-8745], the “% Enzyme Activity (relative to DMSO controls)” value in [1] (500 nM) amounted to 92.33%; in assay [2] (500 nM), 79.77%; in [3] (500 nM), 94.49%; in assay [4] (500 nM), 99.92%; in assay [5] (500 nM), 96.62%; in assay [6] (500 nM) it was 97.14%. In addition, the “% Enzyme Activity (relative to DMSO controls)” value in assay [7] (500 nM) came out at 62.84%; in [8] (500 nM), 107.51%; in assay [9] (500 nM), 94.34%; in assay [10] (500 nM), 91.78%. Besides, the remaining activity at 0.5 µM turned out to be 92.3% in assay [1] (500 nM); 81.5% in assay [2] (500 nM); 96% in [3] (500 nM); 101% in [4] (500 nM); 98.7% in [5] (500 nM); 98.5% in assay [6] (500 nM). Also, the remaining activity at 0.5 µM is 65.6% in assay [7] (500 nM); 109% in assay [8] (500 nM); 95.4% in assay [9] (500 nM, read-out: % Enzyme Activity (relative to DMSO controls)); 92% in assay [10] (500 nM).
